Test results reported in patent US20250171434A1, “SEC61 INHIBITORS AND USE THEREOF” (KEZAR LIFE SCIENCES, INC., priority 2022, published 2025).

Tests used:
[1] = Liver Microsome Stability Assay, mouse; format: in vitro ADME; conditions: mouse liver microsomes 1.0 mg/mL, 1.0 uM compound, 37° C., 1 mM NADPH
Procedure, shortened: (§1)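 Each species' liver microsomes at 1.0 mg/mL received 1.0 uM compound in 0.1 M potassium phosphate with 0.4% DMSO. Reactions proceeded at 37° C in the presence or absence of 1 mM NADPH. Quenching followed at 0 and 30 minutes.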

[2] = Liver Microsome Stability Assay, human; format: in vitro ADME; conditions: human liver microsomes 1.0 mg/mL, 1.0 uM compound, 37° C., 1 mM NADPH
Procedure, shortened: as §1

[3] = system: IL-2-FL/Gaussia Luciferase; experiment: Dox Inducible IL2-FL-Gluc Assay; format: cell-based; conditions: Table 1; for IC50: Flp-In 293 T-REx cells, 24 hours with doxycycline, read-out: 24 hr Dox Inducible IL2FLGluc 293FRT/TO: Mean IC50; for 24 hr Dox Inducible IL2FLGluc 293FRT/TO: IL2/PD1: ratio of IC50s IL2/PD1
Procedure, shortened: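 Reporter is Gaussia luciferase fused to the 3′ end of full-length IL-2 (aa 1-153), expressed from a doxycycline-inducible T-REx construct in stably selected Flp-In 293 cells. Compounds were co-added with doxycycline and incubated at 37° C, 5% CO2.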

[4] = system: multiple myeloma cell line NCI-H929; experiment: H929 Cell Viability Assay; format: cell-based, human; conditions: NCI-H929 cells, 48 hours, Celltiter-Glo; for EC50: Homo sapiens, read-out: 48 hr H929 Viability Celltiter-Glo: Mean EC50
Procedure, shortened: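 Plate the myeloma cells in RPMI 1640 with 10% FBS, add serially diluted compound, incubate for 48 hours at 37° C, then add CellTiter-Glo and read luciferase signal.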

[5] = system: multiple myeloma cell line U266B1; experiment: U266 Cell Viability Assay; format: cell-based; conditions: Homo sapiens, U-266; U266B1 cells, 48 hours, Celltiter-Glo; read-out: 48 hr U266 Viability Celltiter-Glo: Mean EC50
Procedure, shortened: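 48 h treatment, 37° C./5% CO2, RPMI 1640 + 10% FBS; viability by CellTiter-Glo luminescence.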

[6] = Liver Microsome Stability Assay, monkey; format: in vitro ADME; conditions: monkey liver microsomes 1.0 mg/mL, 1.0 uM compound, 37° C., 1 mM NADPH
Procedure, shortened: as §1

[7] = Liver Microsome Stability Assay, rat; format: in vitro ADME; conditions: rat liver microsomes 1.0 mg/mL, 1.0 uM compound, 37° C., 1 mM NADPH
Procedure, shortened: as §1

CD47(ss + 10)Gluc = experiment: Dox-Induced CD47-ss-Gluc Assay; format: cell-based; conditions: Flp-In 293 T-REx cells, 24 hours with doxycycline; Table 1; read-out: 24 hr Dox Inducible CD47(ss + 10)Gluc 293FRT/TO: Mean IC50
[8] = system: IL6R-ss+10aa/Gaussia Luciferase; experiment: Dox-induced IL-6R-ss-Gluc Assay; format: cell-based; conditions: Table 1; for IC50: Flp-In 293 T-REx cells, 24 hours with doxycycline, read-out: 24hr Dox Inducible IL6R(ss + 10)Gluc 293FRT/TO: Mean IC50; for 24hr Dox Inducible IL6R(ss + 10)Gluc 293FRT/TO: IL6R/PD1: ratio of IC50s IL6R/PD1
Procedure, shortened: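 Flp-In 293 T-REx cells stably carrying a doxycycline-inducible IL6R signal sequence+10 aa fused to Gaussia luciferase. Cells plated the day before; compound dilutions added in DMSO/media containing doxycycline and incubated at 37 °C, 5% CO2.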

[9] = system: PD1-ss+10aa/Gaussia Luciferase; experiment: Dox-Induced PD1-ss-Gluc Assay; format: cell-based; conditions: Flp-In 293 T-REx cells, 24 hours with doxycycline; Table 1; read-out: 24 hr Dox Inducible PD1ssGluc 293FRT/TO: Mean IC50
Procedure, shortened: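 Gaussia luciferase fused downstream of the PD1 signal peptide plus 10 residues was expressed on doxycycline induction in stably transfected Flp-In 293 T-REx cells. Compounds were added with doxycycline and incubated at 37 °C, 5% CO2.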

SMILES | Liver Microsome Stability (Multiple Species): Mouse - % Remaining after 30 min w/ NADPH (%) [1] | Liver Microsome Stability (Multiple Species): Human - % Remaining after 30 min w/ NADPH (%) [2] | IC50 [3] | 24 hr Dox Inducible IL2FLGluc 293FRT/TO: IL2/PD1 [3] | EC50 [4] | EC50 [5] | Liver Microsome Stability (Multiple Species): Monkey - % Remaining after 30 min w/ NADPH (%) [6] | Liver Microsome Stability (Multiple Species): Rat - % Remaining after 30 min w/ NADPH (%) [7] | IC50 (CD47(ss + 10)Gluc) | IC50 [8] | 24hr Dox Inducible IL6R(ss + 10)Gluc 293FRT/TO: IL6R/PD1 [8] | IC50 [9] | 48 hr H929 Viability Celltiter-Glo: Mean EC50 (nM) [4]
[2H]c1nc(/C=C/c2csc(NC(=O)c3cccn3Cc3ccnc(F)c3)n2)cn1C(C)C [Compound B21] | 11% | <1% | > 25 µM | >380 | 17.5 µM | 24.2 µM | <1% | 20% | > 25 µM | > 25 µM | >385 | 0.065 µM | 
CN[C@H]1CC[C@H](/C=C/c2csc(NC(=O)c3cccn3Cc3ccncc3)n2)CC1 [Compound B12, N-(4-((E)-2-((1r,4r)-4-(methylamino)cyclohexyl)vinyl)thiazol-2-yl)-1-(pyridin-4-ylmethyl)-1H-pyrrole-2-carboxamide] | 57% | <1% | 7.13 µM | 0.4 | > 25 µM | > 25 µM | <1% | 12% | 15.6 µM | > 25 µM | >1.5 | 17.1 µM | 
Cc1cnc(F)cc1Cn1cc(OC(F)F)cc1C(=O)Nc1nc(/C=C/c2ncn(C3CC3)c2Cl)cs1 [Compound A24, (E)-N-(4-(2-(5-chloro-1-cyclopropyl-1H-imidazol-4-yl)vinyl)thiazol-2-yl)-4-(difluoromethoxy)-1-((2-fluoro-5-methylpyridin-4-yl)methyl)-1H-pyrrole-2-carboxamide] | 77% | 20% | 11.5 µM | 1100.0 | > 25 µM | > 25 µM | 12% | 30% | 5.53 µM | 9.97 µM | 1283 | 0.008 µM | 
CC(C)n1cnc(/C=C/c2csc(NC(=O)c3cc(Cl)cn3Cc3ccnc(F)c3)n2)c1Cl [Compound A1] | 71% | 11% | 2.02 µM | 66 | > 25 µM | > 25 µM | 31% | 82% | 1.86 µM | 1.89 µM | 62 | 0.03 µM | 
O=C(Nc1nc(/C=C/c2cccc(F)c2)cs1)c1cccn1Cc1ccnc(F)c1 [Compound B28, (E)-1-((2-fluoropyridin-4-yl)methyl)-N-(4-(3-fluorostyryl)thiazol-2-yl)-1H-pyrrole-2-carboxamide] | 72% | 70% | 1.09 µM | 6.1 | 15 µM | > 25 µM | 22% | 39% | 1.01 µM | 1.2 µM | 7 | 0.172 µM | 
COc1cc(C(=O)Nc2nc(/C=C/c3ncn(C4CC4)c3Cl)cs2)n(Cc2ccnc(F)c2F)c1 [Compound A20] | 74% | 52% | > 25 µM | >810 | > 25 µM | > 25 µM | 28% | 41% | 5.01 µM | 3.76 µM | 123 | 0.031 µM | 
O=C(Nc1nc(/C=C/c2ncn(C3CC3)c2Cl)cs1)c1cc(OC(F)F)cn1Cc1ccnc(F)c1 [Compound A15, (E)-N-(4-(2-(5-chloro-1-cyclopropyl-1H-imidazol-4-yl)vinyl)thiazol-2-yl)-4-(difluoromethoxy)-1-((2-fluoropyridin-4-yl)methyl)-1H-pyrrole-2-carboxamide] | 100% | 73% | 2.94 µM | 490 |  | > 25 µM | 57% | 55% | 3.23 µM | 2.07 µM | 345 | 0.006 µM | I.A
COc1cc(C(=O)Nc2nc(/C=C/c3ncn(C(C)C)c3Cl)c(CO)s2)n(Cc2ccnc(F)c2F)c1 [Compound A21] | 51% | 1% | > 25 µM | >110 | > 25 µM | > 25 µM | <1% | 59% | 5.87 µM | > 25 µM | >105 | 0.238 µM | 
N[C@H]1CC[C@@H](/C=C/c2csc(NC(=O)c3cccn3Cc3ccncc3)n2)CC1 [Compound B16, N-(4-((E)-2-((1s,4s)-4-aminocyclohexyl)vinyl)thiazol-2-yl)-1-(pyridin-4-ylmethyl)-1H-pyrrole-2-carboxamide] | 79% | 1% | 19.5 µM | 2.4 | 19.3 µM | 21.3 µM | 2% | 47% | 7.07 µM | 8.77 µM | 1 | 8.11 µM | 
CC(C)n1cnc(/C=C/c2csc(NC(=O)c3cc(Cl)cn3Cc3ccnc(F)c3)n2)c1C(F)(F)F [Compound A10, (E)-4-chloro-1-((2-fluoropyridin-4-yl)methyl)-N-(4-(2-(1-isopropyl-5-(trifluoromethyl)-1H-imidazol-4-yl)vinyl)thiazol-2-yl)-1H-pyrrole-2-carboxamide] | 87% | 27% | 1.07 µM | 97 | 5.45 µM | > 25 µM | 38% | 77% | 0.933 µM | 1.05 µM | 96 | 0.011 µM | 
